Measured values: PubChem BioAssay AID1745844 (Carcinogenic Potency Database (CPDB), 2022)
Active and inactive are the calls of the source. No rule for the calls is given here.

Test system: rodent lifetime carcinogenesis bioassay, tumor incidence TD50
Experiment: carcinogenic potency in animals, long-term in vivo studies, CPDB compilation (AID 1745844)

Compound: COc1ccc(C)cc1N
- TD50 (mouse, strain B6C3F1, females, in feed, site: any site (literature study), lesion: several types, types named in the paper, dosed 97 weeks, study length 97 weeks): 75 mg/kg/day
- TD50 (mouse, strain B6C3F1, females, in feed, site: liver + urinary bladder, lesion: hepatocellular adenoma + hepatocellular carcinoma + carcinoma, NOS + neoplasm, NOS, malignant + squamous-cell carc, dosed 97 weeks, study length 97 weeks): 69 mg/kg/day
- TD50 (mouse, strain B6C3F1, females, in feed, site: liver, lesion: hepatocellular adenoma + hepatocellular carcinoma + neoplastic nodule, dosed 97 weeks, study length 97 weeks): 301 mg/kg/day
- TD50 (mouse, strain B6C3F1, females, in feed, site: liver, lesion: hepatocellular adenoma + hepatocellular carcinoma, dosed 97 weeks, study length 97 weeks): 301 mg/kg/day
- TD50 (mouse, strain B6C3F1, females, in feed, site: liver, lesion: hepatocellular carcinoma, dosed 97 weeks, study length 97 weeks): 315 mg/kg/day
- TD50 (mouse, strain B6C3F1, females, in feed, site: lung, lesion: alveolar/bronchiolar adenoma + alveolar/bronchiolar carcinoma, dosed 97 weeks, study length 97 weeks): 3810 mg/kg/day
- TD50 (mouse, strain B6C3F1, females, in feed, site: urinary bladder, lesion: carcinoma, NOS + neoplasm, NOS, malignant + squamous-cell carcinoma + transitional-cell carcinoma, dosed 97 weeks, study length 97 weeks): 69 mg/kg/day
- TD50 (mouse, strain B6C3F1, females, in feed, site: urinary bladder, lesion: carcinoma, NOS + squamous-cell carcinoma + transitional-cell carcinoma, dosed 97 weeks, study length 97 weeks): 70.1 mg/kg/day
- TD50 (mouse, strain B6C3F1, males, in feed, site: any site (literature study), lesion: several types, types named in the paper, dosed 97 weeks, study length 97 weeks): 46.4 mg/kg/day
- TD50 (mouse, strain B6C3F1, males, in feed, site: liver, lesion: hepatocellular adenoma + hepatocellular carcinoma + neoplastic nodule, dosed 97 weeks, study length 97 weeks): 255 mg/kg/day
- TD50 (mouse, strain B6C3F1, males, in feed, site: lung, lesion: alveolar/bronchiolar adenoma + alveolar/bronchiolar carcinoma, dosed 97 weeks, study length 97 weeks): 1170 mg/kg/day
- TD50 (mouse, strain B6C3F1, males, in feed, site: urinary bladder, lesion: squamous-cell carcinoma + transitional-cell carcinoma, dosed 97 weeks, study length 97 weeks): 44.7 mg/kg/day
- TD50 (rat, strain Fischer 344, females, in feed, site: adrenal gland, lesion: cortical adenoma, dosed 104 weeks, study length 105 weeks): 1490 mg/kg/day
- TD50 (rat, strain Fischer 344, females, in feed, site: any site (literature study), lesion: several types, types named in the paper, dosed 104 weeks, study length 105 weeks): 93.8 mg/kg/day
- TD50 (rat, strain Fischer 344, females, in feed, site: liver, lesion: hepatocellular adenoma + hepatocellular carcinoma + neoplastic nodule, dosed 104 weeks, study length 105 weeks): 2180 mg/kg/day
- TD50 (rat, strain Fischer 344, females, in feed, site: nasal cavity + urinary bladder, lesion: olfactory neuroblastoma + neoplasm, NOS + papillary carcinoma + squamous-cell carcinoma + transitional-cell carcinoma, dosed 104 weeks, study length 105 weeks): 110 mg/kg/day
- TD50 (rat, strain Fischer 344, females, in feed, site: nasal cavity, lesion: olfactory neuroblastoma, dosed 104 weeks, study length 105 weeks): 1190 mg/kg/day
- TD50 (rat, strain Fischer 344, females, in feed, site: urinary bladder, lesion: neoplasm, NOS + papillary carcinoma + squamous-cell carcinoma + transitional-cell carcinoma, dosed 104 weeks, study length 105 weeks): 110 mg/kg/day
- TD50 (rat, strain Fischer 344, females, in feed, site: uterus, lesion: endometrial stromal polyp, dosed 104 weeks, study length 105 weeks): 913 mg/kg/day
- TD50 (rat, strain Fischer 344, males, in feed, site: any site (literature study), lesion: several types, types named in the paper, dosed 104 weeks, study length 105 weeks): 98 mg/kg/day
- TD50 (rat, strain Fischer 344, males, in feed, site: brain + brain stem, lesion: glioma, NOS, dosed 104 weeks, study length 105 weeks): 3510 mg/kg/day
- TD50 (rat, strain Fischer 344, males, in feed, site: liver + nasal cavity + nasopharynx + urinary bladder, lesion: hepatocellular carcinoma + mixed hepato/cholangio carcinoma + neoplastic nodule + adenoma, NOS + carcinoma, NOS + neuroblastoma + ne, dosed 104 weeks, study length 105 weeks): 76.3 mg/kg/day
- TD50 (rat, strain Fischer 344, males, in feed, site: liver, lesion: hepatocellular adenoma + hepatocellular carcinoma + neoplastic nodule, dosed 104 weeks, study length 105 weeks): 443 mg/kg/day
- TD50 (rat, strain Fischer 344, males, in feed, site: liver, lesion: hepatocellular carcinoma + mixed hepato/cholangio carcinoma + neoplastic nodule, dosed 104 weeks, study length 105 weeks): 406 mg/kg/day
- TD50 (rat, strain Fischer 344, males, in feed, site: nasal cavity + nasopharynx, lesion: carcinoma, NOS + neoplasm, NOS, malignant + adenocarcinoma, NOS, dosed 104 weeks, study length 105 weeks): 4620 mg/kg/day
- TD50 (rat, strain Fischer 344, males, in feed, site: nasal cavity, lesion: adenoma, NOS + carcinoma, NOS + neuroblastoma + neoplasm, NOS, malignant + olfactory neuroblastoma, dosed 104 weeks, study length 105 weeks): 397 mg/kg/day
- TD50 (rat, strain Fischer 344, males, in feed, site: nasal cavity, lesion: neuroblastoma + olfactory neuroblastoma, dosed 104 weeks, study length 105 weeks): 450 mg/kg/day
- TD50 (rat, strain Fischer 344, males, in feed, site: testis, lesion: interstitial-cell tumor, dosed 104 weeks, study length 105 weeks): 165 mg/kg/day
- TD50 (rat, strain Fischer 344, males, in feed, site: urinary bladder, lesion: papillary carcinoma + squamous-cell carcinoma + transitional-cell carcinoma + transitional-cell papilloma + undifferentiated car, dosed 104 weeks, study length 105 weeks): 88.4 mg/kg/day

Compound: Cc1cnc(NC(=O)C2=C(O)c3ccccc3S(=O)(=O)N2C)s1
- carcinogen call (rat, strain Wistar, females, by gavage, site: stomach, lesion: one or several types, types not named, dosed 52 weeks, study length 52 weeks): negative (inactive)
- carcinogen call (rat, strain Wistar, males, by gavage, site: stomach, lesion: one or several types, types not named, dosed 52 weeks, study length 52 weeks): negative (inactive)

Compound: CCC[CH2][Sn]([CH2]CCC)([O]C(C)=O)[O]C(C)=O
- TD50 (mouse, strain B6C3F1, females, in feed, site: any site (literature study), lesion: several types, types named in the paper, dosed 78 weeks, study length 92 weeks): 29.6 mg/kg/day
- TD50 (mouse, strain B6C3F1, females, in feed, site: liver, lesion: hepatocellular adenoma + hepatocellular carcinoma + neoplastic nodule, dosed 78 weeks, study length 92 weeks): 31.6 mg/kg/day
- TD50 (mouse, strain B6C3F1, females, in feed, site: liver, lesion: hepatocellular adenoma, dosed 78 weeks, study length 92 weeks): 31.6 mg/kg/day (inactive)
- TD50 (mouse, strain B6C3F1, males, in feed, site: any site (literature study), lesion: several types, types named in the paper, dosed 78 weeks, study length 92 weeks): 178 mg/kg/day (inactive)
- TD50 (mouse, strain B6C3F1, males, in feed, site: liver, lesion: hepatocellular adenoma + hepatocellular carcinoma + neoplastic nodule, dosed 78 weeks, study length 92 weeks): 29.2 mg/kg/day
- TD50 (rat, strain Fischer 344, females, in feed, site: liver, lesion: hepatocellular adenoma + hepatocellular carcinoma + neoplastic nodule, dosed 78 weeks, study length 104 weeks): 94.4 mg/kg/day
- carcinogen call (rat, strain Fischer 344, males, in feed, site: any site (literature study), lesion: several types, types named in the paper, dosed 78 weeks, study length 104 weeks): negative (inactive)

Compound: CCCOC(=O)C1c2cc3c(cc2CC(C)C1C(=O)OCCC)OCO3 (stereo not given)
- TD50 (mouse, strain B6AKF1, females, oral dosing, site: any site (literature study), lesion: several types, types named in the paper, dosed 76 weeks, study length 76 weeks): 4390 mg/kg/day (inactive)
- carcinogen call (mouse, strain B6AKF1, females, oral dosing, site: liver, lesion: hepatoma, dosed 76 weeks, study length 76 weeks): negative (inactive)
- TD50 (mouse, strain B6AKF1, females, oral dosing, site: lung, lesion: adenoma, dosed 76 weeks, study length 76 weeks): 4690 mg/kg/day (inactive)
- carcinogen call (mouse, strain B6AKF1, males, oral dosing, site: any site (literature study), lesion: several types, types named in the paper, dosed 76 weeks, study length 76 weeks): negative (inactive)
- carcinogen call (mouse, strain B6AKF1, males, oral dosing, site: liver, lesion: hepatoma, dosed 76 weeks, study length 76 weeks): negative (inactive)
- carcinogen call (mouse, strain B6AKF1, males, oral dosing, site: lung, lesion: adenoma, dosed 76 weeks, study length 76 weeks): negative (inactive)
- carcinogen call (mouse, strain B6C3F1, females, oral dosing, site: any site (literature study), lesion: one or several types, types not named, dosed 76 weeks, study length 76 weeks): negative (inactive)
- carcinogen call (mouse, strain B6C3F1, females, oral dosing, site: liver, lesion: hepatoma, dosed 76 weeks, study length 76 weeks): negative (inactive)
- carcinogen call (mouse, strain B6C3F1, females, oral dosing, site: lung, lesion: several types, types named in the paper, dosed 76 weeks, study length 76 weeks): negative (inactive)
- TD50 (mouse, strain B6C3F1, males, oral dosing, site: any site (literature study), lesion: several types, types named in the paper, dosed 76 weeks, study length 76 weeks): 374 mg/kg/day (inactive)
- TD50 (mouse, strain B6C3F1, males, oral dosing, site: liver, lesion: hepatoma, dosed 76 weeks, study length 76 weeks): 1050 mg/kg/day (inactive)
- TD50 (mouse, strain B6C3F1, males, oral dosing, site: lung, lesion: adenoma, dosed 76 weeks, study length 76 weeks): 4650 mg/kg/day (inactive)
